Assay results reported in the supplement of paper PMC11451515.

Test system: SEM cells
Assay: cell viability relative to DMSO control; higher = less cytotoxic
Details: 48 h
Outline: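 Three leukemia lines were tested: NOMO1 and SEM at 500 cells/well and P12-Ichikawa at 1000 cells/well. Each was adapted for at least four passages in each medium and seeded in 5 μl in 1536-well plates, and library compounds in DMSO were pin-dosed from 47 μM to 0.79 nM in 11 threefold steps. After 48 h at 37°C, CellTiter-Glo One luminescence was read. Viability is a percentage relative to DMSO wells on each plate, with cell-free wells as background.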

[1] = HPLM + 10% dialyzed FBS, 0.000781 µM
[2] = HPLM + 10% dialyzed FBS, 0.00234 µM
[3] = HPLM + 10% dialyzed FBS, 0.00702 µM
[4] = HPLM + 10% dialyzed FBS, 0.0211 µM
[5] = HPLM + 10% dialyzed FBS, 0.0632 µM
[6] = HPLM + 10% dialyzed FBS, 0.19 µM
[7] = HPLM + 10% dialyzed FBS, 0.569 µM
[8] = HPLM + 10% dialyzed FBS, 1.71 µM
[9] = HPLM + 10% dialyzed FBS, 5.12 µM
[10] = HPLM + 10% dialyzed FBS, 15.4 µM
[11] = HPLM + 10% dialyzed FBS, 46.1 µM
[12] = RPMI 5 mM glucose + 10% FBS, 0.000781 µM
[13] = RPMI 5 mM glucose + 10% FBS, 0.00234 µM
[14] = RPMI 5 mM glucose + 10% FBS, 0.00702 µM
[15] = RPMI 5 mM glucose + 10% FBS, 0.0211 µM
[16] = RPMI 5 mM glucose + 10% FBS, 0.0632 µM
[17] = RPMI 5 mM glucose + 10% FBS, 0.19 µM
[18] = RPMI 5 mM glucose + 10% FBS, 0.569 µM
[19] = RPMI 5 mM glucose + 10% FBS, 1.71 µM
[20] = RPMI 5 mM glucose + 10% FBS, 5.12 µM
[21] = RPMI 5 mM glucose + 10% FBS, 15.4 µM
[22] = RPMI 5 mM glucose + 10% FBS, 46.1 µM
[23] = RPMI 5 mM glucose + 10% dialyzed FBS, 0.000781 µM
[24] = RPMI 5 mM glucose + 10% dialyzed FBS, 0.00234 µM
[25] = RPMI 5 mM glucose + 10% dialyzed FBS, 0.00702 µM
[26] = RPMI 5 mM glucose + 10% dialyzed FBS, 0.0211 µM
[27] = RPMI 5 mM glucose + 10% dialyzed FBS, 0.0632 µM
[28] = RPMI 5 mM glucose + 10% dialyzed FBS, 0.19 µM
[29] = RPMI 5 mM glucose + 10% dialyzed FBS, 0.569 µM
[30] = RPMI 5 mM glucose + 10% dialyzed FBS, 1.71 µM
[31] = RPMI 5 mM glucose + 10% dialyzed FBS, 5.12 µM
[32] = RPMI 5 mM glucose + 10% dialyzed FBS, 15.4 µM
[33] = RPMI 5 mM glucose + 10% dialyzed FBS, 46.1 µM

SMILES	cell viability [1] [%]	cell viability [2] [%]	cell viability [3] [%]	cell viability [4] [%]	cell viability [5] [%]	cell viability [6] [%]	cell viability [7] [%]	cell viability [8] [%]	cell viability [9] [%]	cell viability [10] [%]	cell viability [11] [%]	cell viability [12] [%]	cell viability [13] [%]	cell viability [14] [%]	cell viability [15] [%]	cell viability [16] [%]	cell viability [17] [%]	cell viability [18] [%]	cell viability [19] [%]	cell viability [20] [%]	cell viability [21] [%]	cell viability [22] [%]	cell viability [23] [%]	cell viability [24] [%]	cell viability [25] [%]	cell viability [26] [%]	cell viability [27] [%]	cell viability [28] [%]	cell viability [29] [%]	cell viability [30] [%]	cell viability [31] [%]	cell viability [32] [%]	cell viability [33] [%]
O=C(CO)N1CCC(c2n[nH]c(-c3ccc(Cl)cc3)c2-c2ccncn2)CC1	102	119	119	112	110	104	98.7	101	75.6	64.9	31	114	128	123	127	107	123	109	106	85.3	49.4	16	131	108	108	141	110	119	128	100	79.7	51.5	20.1
CC\1=C(C(=O)N(\C=C1)C2=CC=C(C=C2)C3=NC=CO3)/C4=CC5=CN=C(N)N=C5C=C4	96.2	95	109	99.8	100	103	76.2	84	40.8	36	27	87.3	115	127	121	108	111	97.4	101	38.5	29.5	21.3	90	104	118	102	97.1	97.4	68.9	72.1	26.1	20.4	19.1
CC(C)(C)c1cc(C=C(C#N)C#N)cc(Br)c1O	87	109	42.3	114	111	109	114	110	111	108	104	65.4	72.7	11.9	67.3	90.6	81.4	83.8	77.4	71.5	77.7	77.5	87.3	98.8	35.7	111	108	123	119	107	105	115	90.7
CC(C)(C)C(=O)Oc1ccc([S+](=O)([O-])Nc2ccccc2C(=O)NCC(=O)O)cc1	107	106	111	109	116	122	74.3	58.9	123	128	124	95.5	93.9	88.9	92.8	104	107	95.1	48.8	91.6	96.7	90.4	106	99.3	104	123	94.6	116	93.7	50.6	98.8	109	124
CCOC(=O)N1CCN(/[N+]([O-])=N/Oc2ccc([N+](=O)[O-])cc2[N+](=O)[O-])CC1	64.4	70.7	60.1	77.6	76	94.4	85.7	73.8	42.5	22.4	14	70.6	84.9	56.8	91.9	93.9	94.9	88.8	81.5	40.7	13.2	8.13	77.3	91.6	72.5	88.2	89	86.2	102	78.2	43.6	16.7	8.98
COc1cc(O)c2c(c1)C1OC1C[C@H](O)[C@H](O)C(=O)/C=C\C[C@H](C)OC2=O (stereo not given in full)	95.5	93.1	111	108	125	125	101	114	55.5	31.4	7.96	101	103	108	86.9	114	108	117	101	58	30.7	4.26	101	119	117	127	109	121	102	110	47.6	24.4	5.3
COc1cc(C(C)=O)ccc1OCCCN1CCC(c2noc3cc(F)ccc23)CC1	110	112	118	95	99.3	124	123	123	122	128	88.7	–	–	–	–	–	–	–	–	–	–	–	113	121	137	135	115	142	160	135	158	138	106
